Publication PMC10115881, “Disrupting the α-synuclein-ESCRT interaction with a peptide inhibitor mitigates neurodegeneration in preclinical models of Parkinson’s disease” (Nature Communications, 2023)
No end group written: not given here. *: point of attachment. FITC = O=C1OC2(c3ccc(O)cc3Oc3cc(O)ccc32)c2ccc(NC(=S)*)cc21

Columns and labels:
[1] = tested on: PDE dopaminergic neurons of A30P a-syn C. elegans; test: C. elegans PDE neurite length assay; format: in vivo
Experimental: C. elegans strains were grown and maintained under standard conditions at 22–23 °C [66]. BZ555 [dat-1p::gfp] was obtained from the C. elegans Genetics Center (CGC; University of Minnesota, St Paul, MN, USA), TWH1 ([dat-1p::a-syn(A30P), ges-1p::DsRed]; [dat-1p::gfp]) was obtained by crossing BZ555 with A30P a-syn transgenic animals (kindly provided by Dr. Takeshi Iwatsubo, University of Tokyo)[67].
The peptide construct (pPD97.78_osm-6p_TagRFP_wpeptide) was obtained by subcloning the following fragments into NheI and SpeI sites of pPD97.78 (A. Fire): NheI-AgeI […] fragment (2.4 kb) obtained by PCR using primer set 5′-[…]-3′ and 5′-[…]-3′ and N2 genomic DNA as a template, AgeI-EcoRI TagRFP fragment obtained by PCR using primer set 5′-gttgaccggt[…]-3′ and 5′-ggcagaattcga[…]-3′, EcoRI-SmaI peptide ([…]) fragment digested from CMV_[…]_worm, SmaI-SpeI unc-54 3′-UTR fragment digested from pPD95.75 (Fire vector). The TagRFP control construct was obtained by replacing the EcoRI-SmaI peptide fragment and SmaI-SpeI unc-54 3′-UTR fragment from pPD97.78_osm-6p_TagRFP_wpeptide, to EcoRI- SpeI unc-54 3′-UTR fragment digested from pPD95.75[68].
Each plasmid (40 ng/µl) was injected with a co-injection marker, sur-5p::mCherry into TWH1. The animals carrying the extrachromosomal arrays were transferred to new plates, and their progenies were analyzed at the adult stage under a widefield microscope (Zeiss AxioObserver). Pearson Chi-square test was used for statistical analysis.

[2] = tested on: A53T a-syn expressing HEK293 cells; test: Cell Titer-Glo cell viability, A53T a-syn expressing cells; format: cell-based, human; details: A53T a-syn cells
Experimental: Oligonucleotides encoding the specific peptides were synthesized and individually cloned into the pLJM1 nGFP lentiviral vector. HEK293T cells were infected with individual constructs, and cell viability was assessed using Cell Titer-Glo luminescent assay (Promega) at 72 h post infection.
Cells were trypsinized from subconfluent cultures as described earlier, suspended in culture media, and then seeded into triplicate wells of a 96-well plate (100 µl/well) at a density of 1.5 × 10^4 cells per well with standard culture conditions of 5% CO2 at 37 °C. Cells were infected with lentivirus expressing peptide at a MOI of 5 for 72 h or transfected with plasmid for 72 h. Cell Titer-Glo reagent was added to each well (30 µL), according to the manufacturer’s protocol and […].

A53T a-syn = A53T a-syn protein level in HEK293 cells by immunoblot; format: cell-based, human
Experimental: Infected or transfected cells were scraped from six-well dishes and lysed with lysis buffer (50 mM Tris-HCl pH 7.4, 1% Nonidet P-40, 150 mM NaCl, 1 mM EDTA, 1× protease inhibitor mixture (Sigma)) for 30 min at 4 °C. The insoluble pellet was removed following a 10,000 rpm spin for 5 min at 4 °C. Lysates were analyzed by SDS-PAGE/immunoblot using 4–20% Mini-PROTEAN Tris-glycine gels (Bio-Rad), transferred to polyvinylidene fluoride (PVDF) membranes, and blocked in 5% milk containing PBS-Tween-20 (0.1%) for 1 h. PVDF membranes were then incubated with specified primary antibodies followed by incubation with horseradish peroxidase-conjugated secondary antibodies (anti-mouse HRP-linked, Cell Signaling, catalog #7076, 1:5000; anti-rabbit HRP-linked, Cell Signaling, catalog #7074, 1:5000) and detected using enhanced chemiluminescence (GE Healthcare). Anti-a-syn antibody (clone 42) was obtained from BD Biosciences (catalog #610787, 1:1000). Anti-LAMP1 antibody was obtained from Abcam (catalog #ab24170, 1:500). Anti-beta-actin antibody was obtained from Cell Signaling (13E5) (catalog #4970, 1:1000). Anti-CD63 antibody was obtained from R&D Systems (catalog #MAB50482-SP, 1:1000).

VPS4 = details: motif-domain interaction; read-out: CHMP2B-VPS4 interaction affinity; cited from earlier work
From the text: CHMP2B has been reported to bind to Vacuolar Protein Sorting 4 (VPS4), an AAA-type adenosine triphosphatase. This interaction is mediated by the C-terminal MIM on CHMP2B and a Microtubule Interacting and Trafficking (MIT) domain on VPS4. […] However, we also noted that many CHMP proteins can self-interact and have been reported to multimerize, which may contribute to their function. In particular, CHMP2B can self-interact[30] and is thought to polymerize at the budding of membranes during endosome formation. ...

[3] = tested on: LC3-HiBiT reporter in HEK293 cells; test: Autophagy flux assay (LC3-HiBiT reporter), HEK293 cells; format: cell-based, human
From the text: Autophagic flux was quantitatively measured with the Autophagy LC3-HiBiT Reporter Assay System which was purchased from Promega (GA1040) and used according to the manufacturer’s instructions. When autophagy is induced, the cytosolic LC3-I fusion protein is recruited to phagophores where it becomes conjugated to phosphatidylethanolamine to form LC3-II. Upon phagophore membrane elongation and closure to form the mature autophagosome, a significant fraction of tethered LC3 protein becomes captured within the lumen together with various cargo. Subsequently, autophagosomes fuse with lysosomes to form autolysosomes, leading to the ultimate degradation of both cargo and the captured LC3 reporter protein. Thus, changes in the total level of the LC3 reporter protein can be used to monitor changes in autophagic flux. HEK293 cells (ATCC, CRL-1573) stably expressing the LC3-HiBiT reporter were trypsinized from subconfluent culture and seeded in a 10 cm plate at a density of 3.0 × 10^6 per plate. Cells were incubated overnight at 37 °C in 5% CO2. Cells were transfected with FLAG-peptide plasmids in combination with pcDNA or A53T a-syn plasmids. After 24 h, cells were trypsinized and seeded in triplicate in a white flat-bottomed 96-well plate at a density of 20,000 cells per well. Cell medium was replaced the next day with fresh medium containing DMSO, Rapamycin, or Bafilomycin A1 and incubated for 24 h at 37 °C with 5% CO2. 80 µL of Working prewarmed Nano-Glo® HiBiT lytic buffer containing HiBiT substrate and LgBit protein (N3030) were added to each well containing 20 µL of cell medium and left to incubate on a rocker for 10 min. Samples were read using a luminometer with a 480 nm filter with measured RLU being directly proportional to HiBiT-conjugated LC3.

[4] = biological target: T1, purified recombinant CHMP2B (UniProt Q9UQN3 1-213); test: fluorescence polarisation; FITC-peptide constant at 50 nM, CHMP2B serially diluted 1:1 from 30 μM; 50 mM Na phosphate pH 5.5 or 20 mM Na acetate pH 5.5, 0.5 mM TCEP, 0.005% Triton-X-100; 30 min at room temperature; details: both partners purified
T1 construct: CHMP2B from the vector pET-DEST42 CHMP2B; eluted as a 26 kDa monomer; Removal of tags is not described; source: E. coli Overexpress C41, inclusion bodies, purified (Ni-NTA in guanidine HCl, dialysis, SEC)

[5] = biological target: T2, purified VPS4B (Vacuolar Protein Sorting 4) (UniProt O75351 1-444); test: FP
T2 chain: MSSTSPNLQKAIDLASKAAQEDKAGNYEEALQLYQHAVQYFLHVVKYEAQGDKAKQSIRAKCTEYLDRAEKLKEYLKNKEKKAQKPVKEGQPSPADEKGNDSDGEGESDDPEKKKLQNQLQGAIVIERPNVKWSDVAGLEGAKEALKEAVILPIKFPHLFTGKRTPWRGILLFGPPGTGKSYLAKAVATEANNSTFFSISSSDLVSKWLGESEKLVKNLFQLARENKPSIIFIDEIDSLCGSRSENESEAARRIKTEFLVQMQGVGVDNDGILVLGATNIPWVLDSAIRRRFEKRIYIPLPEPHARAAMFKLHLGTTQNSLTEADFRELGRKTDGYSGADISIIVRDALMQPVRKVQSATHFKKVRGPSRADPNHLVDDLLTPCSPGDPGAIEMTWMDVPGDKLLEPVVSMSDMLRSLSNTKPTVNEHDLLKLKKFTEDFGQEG

[6] = biological target: T3, purified VPS4B (Vacuolar Protein Sorting 4) (UniProt O75351 1-444); test: not stated; 'our affinity measurements' of PDpep1.3 with VPS4 (Fig. S1G); details: both partners purified
T3 construct: VPS4B expressed as a His-tagged Sumo construct in a pRSet B vector; The results speak of 'VPS4'; VPS4B is the only VPS4 protein whose purification is described; source: E. coli Overexpress C41, purified (Ni-NTA)
T3 sequence (looked up): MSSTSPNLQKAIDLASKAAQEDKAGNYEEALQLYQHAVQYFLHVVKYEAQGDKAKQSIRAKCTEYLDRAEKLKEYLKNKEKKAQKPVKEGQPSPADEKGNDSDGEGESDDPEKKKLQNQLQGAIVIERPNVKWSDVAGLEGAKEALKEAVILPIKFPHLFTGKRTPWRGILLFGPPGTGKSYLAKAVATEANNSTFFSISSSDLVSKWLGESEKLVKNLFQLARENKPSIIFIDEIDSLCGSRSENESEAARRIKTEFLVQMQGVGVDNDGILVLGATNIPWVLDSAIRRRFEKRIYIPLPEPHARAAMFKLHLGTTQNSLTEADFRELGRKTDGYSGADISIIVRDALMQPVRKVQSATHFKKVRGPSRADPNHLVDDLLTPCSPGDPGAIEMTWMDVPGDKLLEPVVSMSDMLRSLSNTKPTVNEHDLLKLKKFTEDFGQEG

T1 sequence (Q9UQN3 whole entry): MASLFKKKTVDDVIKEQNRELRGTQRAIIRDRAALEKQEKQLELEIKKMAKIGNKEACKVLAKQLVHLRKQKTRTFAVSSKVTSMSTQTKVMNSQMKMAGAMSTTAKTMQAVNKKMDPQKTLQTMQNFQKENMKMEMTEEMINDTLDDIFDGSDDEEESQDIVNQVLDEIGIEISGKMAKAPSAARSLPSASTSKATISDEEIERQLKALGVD

FEELEAQLARLR [TagRFP::peptide]
Effect on PDE neurite shortening ([1]; A30P human a-syn): partially rescued
Proportion displaying Long PDE neurite length ([1]; a-Syn (A30P), Marker +, adult): 36.95%
Proportion displaying Medium PDE neurite length ([1]; a-Syn (A30P), Marker +, adult): 48.43%
Proportion displaying Short PDE neurite length ([1]; a-Syn (A30P), Marker +, adult): 14.62%

CHMP2B: CHarged Multivesicular body Protein 2B, full-length
Effect on cell survival/viability [2]: rescues a-syn cytotoxicity
Effect on A53T a-syn protein level (A53T a-syn): reduces a-syn levels
Kd (VPS4): 178 µM

CO/C1=C\C(C)=C\[C@@H](C)[C@@H](O)[C@@H](C)C/C(C)=C/C=C/[C@H](OC)[C@@H]([C@@H](C)[C@@H](O)[C@H](C)[C@@]2(O)C[C@@H](O)[C@H](C)[C@@H](C(C)C)O2)OC1=O [bafilomycin A1]
Effect on autophagic flux [3]: increases LC3 reporter levels and luminescent signal

CO[C@H]1C[C@@H]2CC[C@@H](C)[C@@](O)(O2)C(=O)C(=O)N2CCCC[C@H]2C(=O)O[C@H]([C@H](C)C[C@@H]2CC[C@@H](O)[C@H](OC)C2)CC(=O)[C@H](C)/C=C(\C)[C@@H](O)[C@@H](OC)C(=O)[C@H](C)C[C@H](C)/C=C/C=C/C=C/1C [rapamycin]
Effect on autophagic flux [3]: decreased LC3 reporter levels and luminescent signal

B1: FITC-labeled a-syn peptide, amino acids 103-114 (NEEGAPQEGILE) (peptide)
peptide: {FITC}-NEEGAPQEGILE
notes: α-synuclein amino acids 103-114; also called a-syn peptide fragment; source: synthetic peptide (LifeTein)
Kd [4]: 0.64 µM

B2: FITC-labeled PDpep1.3 peptide (peptide)
peptide: {FITC}-DEEIERQLKALG
notes: stretch of the C-terminal region (MIM) of CHMP2B; also called FITC-PDpep1.3; source: synthetic peptide (LifeTein)
Kd [5]: ~200 µM
Kd [6]: > 100 µM
Kd [4]: 1.8 µM
